Data published in article PMC12608320, “Insecticidal Potential of Aniba canelilla (H.B.K.) Mez Essential Oil Against Aedes aegypti: Larvicidal and Adulticidal Activities, Mechanism of Action, and Formulation Development” (Plants, 2025).
≈ marks a conversion by molar mass, not a printed value. Where “and” joins values, the source holds several entries; their conditions need not be identical. Equal entries are not always repeated.

Tests used:
[1] = tested on: Aedes aegypti larvae; experiment: Larvicidal activity against Aedes aegypti third instar larvae; conditions: for LC50 ± SEM (LCL-UCL): L3 larvae
Method: Eggs of the Rockefeller strain of Aedes aegypti were hatched in filtered water, and larvae were reared under controlled conditions (28 ± 1 °C; 12 h photoperiod) until reaching the third instar (L3). […] Each test condition, including controls, was run in quadruplicate. […] Formulations (PEOANIB, PNFTANE, PNFTENE) were applied with the same protocol used for DMSO-dissolved samples, keeping the final solvent concentration at 1% (v/v) of the total water volume.
Negative controls contained either DMSO (200 µL) alone or blank nanomicelles (NBr) at a volume matching the highest concentration tested, whereas the positive control comprised temephos at 1 µg mL^−1. After 14 days of preparation of the formulation, an activity confirmation test was performed at fixed concentrations of PNFTANE (70 ppm) and PNFTENE (5 ppm) formulations. The assays were performed in quadruplicate.

[2] = tested on: A. aegypti; conditions: cited from earlier work
[3] = tested on: Leishmania amazonensis; design: method as in doi:10.1590/S0103-50532009000600011; conditions: cited from earlier work
[4] = tested on: Artemia salina; conditions: cited from earlier work
[5] = design: method as in PMID 20406629; conditions: Wistar rats, 5–10 mg/kg; cited from earlier work
[6] = tested on: Aedes aegypti females; experiment: Adulticidal bottle bioassay (WHO/CDC) against Aedes aegypti females; assay type: in vivo; conditions: preliminary tests
Method: A. aegypti colony was maintained at 26 ± 1 °C, 80 ± 5% relative humidity, and a 12 h light–dark cycle. […] Glass bottles (295 mL) were coated with 1 mL of essential oil solution in analytical-grade acetone. Bottles were left open for 10 min to allow complete solvent evaporation, then acclimated for 1 h with the cap removed. Each bottle received 15–25 unfed adult female A. aegypti and was exposed to 200–50 ppm of the test compound. Deltamethrin (K-Othrine®) at 10 ppm served as the positive control, and acetone-treated bottles as the negative control. Assays were conducted in quadruplicate, with mortality recorded at 15 min intervals over 90 min of continuous exposure. After 90 min, mosquitoes were gently transferred to 500 mL cylindrical paper containers covered with nylon mesh and kept under colony conditions (26 °C, 80% RH, 12 h photoperiod) for knockdown assessment 24 h post-exposure.

[7] = molecular target: T1, Acetylcholinesterase (AChE) from Electrophorus electricus (Electrophorus electricus, UniProt O42275); experiment: AChE inhibition (Ellman), commercial enzyme; assay type: biochemical; conditions: for IC50: commercial enzyme 0.15 U mL^−1
T1 construct: purchased C3389-2KU
Method: (§1) Percentage inhibition of AChE was determined by the standard Ellman colorimetric method, with minor adaptations. […] After a 10 min incubation at 30 °C, 20 µL of DTNB (3.0 mM) and 20 µL of acetylthiocholine iodide (10.0 mM) were added. Plates were then incubated for a further 30 min at 30 °C, and end-point absorbance was read at 405 nm and pathlength 0.62 cm on a SpectraMax® 190 microplate reader (Molecular Devices^TM, SoftMax® Pro 5; serial no. SMP500-11007-TIQG).

[8] = molecular target: T2, acetylcholinesterase from D. melanogaster adults homogenate (Drosophila melanogaster, UniProt P07140); experiment: AChE inhibition (Ellman), D. melanogaster adult homogenate; assay type: biochemical; conditions: for inhibition at 1500 µg/mL: at 1.5 mg∙mL^−1 (1500 µg mL^−1), read-out: Inhibition Rate (%) ± SD
T2 construct: from tissue; host or cells: whole-body homogenate supernatant of adult D. melanogaster (laboratory colony)
Method: (§2) A total of 250 third instar larvae (370.1 mg) and 250 adults (163.8 mg) of A. aegypti, together with 150 adults of D. melanogaster (134.6 mg), were collected. Each group was placed in a separate 50 mL Falcon tube and frozen at −20 °C to arrest metabolic activity. After freezing, 5 mL of ultrapure water were added to each tube, and the contents were mechanically homogenized on ice using an IKA Ultra-Turrax® homogenizer (model T10BS32) at speed setting 4 for 5 min. The resulting homogenates were transferred to centrifuge tubes and spun at 10,000 rpm for 5 min at 4 °C in a refrigerated centrifuge. Supernatants were carefully collected, aliquoted and stored at −20 °C for biochemical analyses performed within 24 h. After preparation, the homogenates contained 50 insects/mL (larvae) and 30 insects/mL (adult Aedes aegypti and Drosophila melanogaster). These preparations were subsequently used for acetylcholinesterase inhibition activity, total-protein quantification by the BCA method, and calculation of specific catalytic units per individual.
as §1

[9] = molecular target: acetylcholinesterase from A. aegypti larvae homogenate (Aedes aegypti, UniProt Q6A2E2); experiment: AChE inhibition (Ellman), A. aegypti L3 larvae homogenate; assay type: biochemical; conditions: for inhibition at 1500 µg/mL: at 1.5 mg∙mL^−1 (1500 µg mL^−1), read-out: Inhibition Rate (%) ± SD
Method: as §2, §1

[10] = molecular target: acetylcholinesterase from A. aegypti adults homogenate (Aedes aegypti, UniProt Q6A2E2); experiment: AChE inhibition (Ellman), A. aegypti adult homogenate; assay type: biochemical; conditions: for inhibition at 1500 µg/mL: at 1.5 mg∙mL^−1 (1500 µg mL^−1), read-out: Inhibition Rate (%) ± SD
Method: as §2, §1

[11] = tested on: macrophages; design: method as in doi:10.1590/S0103-50532009000600011; conditions: cited from earlier work
[12] = tested on: Trypanosoma evansi; design: method as in PMID 27988226; conditions: at 0.5–2.0%; cited from earlier work
[13] = tested on: Artemia salina nauplii; experiment: Toxicity test on Artemia salina nauplii (non-target); assay type: in vivo; conditions: 24 h, metanauplii
Method: Toxicity assays with Artemia salina followed the procedure of Meyer and collaborators with adaptations like those of [86, 107]. For cyst hatching, 25 mg of eggs were placed in a cuboid-glass vessel containing 600 mL of artificial seawater (38 g L^−1 in distilled water) and incubated at 28–30 °C under continuous illumination from a 40 W incandescent lamp. After 24 h, the nauplii (first larval stage) were transferred to fresh saline and reared for an additional 24 h under the same conditions to obtain metanauplii (second larval stage), which were used in the bioassays. Ten metanauplii were exposed to 10 mL of saline containing the test samples dissolved in DMSO. […] After dosing, organisms were maintained at 28–30 °C under artificial light for 24 h. Mortality defined as immobility or sinking to the bottom was recorded, and LC50 values were calculated for each sample. All experiments were performed in triplicate with independent replicates under identical conditions to ensure reproducibility.

**Q.** Which mortality at 1 ppm ([1]; Aedes aegypti, read-out: larval mortality) does the source give for `COP(=S)(OC)Oc1ccc(Sc2ccc(OP(=S)(OC)OC)cc2)cc1` [Temephos, reference compound] here?
**A.** Its mortality at 1 ppm is 100%.

**Q.** For `C=C1CC/C=C(\C)CC[C@@H]2[C@@H]1CC2(C)C` [β-caryophyllene], which “LC50 (adulticidal activity of minor constituents)” value [2] is on record?
**A.** Its value is 26 ppm.

**Q.** Which IC50 [3] does the source give for `N=C(N)c1ccc(OCCCCCOc2ccc(C(=N)N)cc2)cc1` [pentamidine, reference compound] here?
**A.** The IC50 was 4.8 µg/mL (≈ 14.1 µM).

**Q.** Which LC50 [4] does the source give for `CCOP(=S)(OCC)Oc1nc(Cl)c(Cl)cc1Cl` [chlorpyrifos] here?
**A.** The LC50 was 0.38 ppm.

**Q.** Which “effect on blood pressure” value [5] does the source give for `O=[N+]([O-])CCc1ccccc1` [NFTANE, 1-Nitro-2-phenylethane] here?
**A.** Its value is “significantly lowering blood pressure”.

**Q.** What about the “adulticidal effects compared with EOANIB” value [6] of the same molecule?
**A.** The value was “comparable adulticidal effects to EOANIB”.

**Q.** And the IC50 [3]?
**A.** The IC50 was 40 µg/mL (≈ 265 µM).

**Q.** And the “LC50 ± SEM (LCL-UCL)” value ([1]; 24 h exposure)?
**A.** Its value is 84.8 ppm and 85.8 ppm.

**Q.** And the “LC50 ± SEM (LCL-UCL)” value ([1]; 48 h exposure)?
**A.** Its value is 83.6 ppm.

**Q.** What about the LC50 ([1]; exposure time not given) of the same molecule?
**A.** The LC50 was 84–87 ppm.

**Q.** What about the “Slope ± SEM” value [7] of the same molecule?
**A.** The value was 1.175 ± 0.066.

**Q.** What about the IC50 [7] of the same molecule?
**A.** The IC50 was 1.25 mM.

**Q.** What about the inhibition at 1500 µg/mL [8] of the same molecule?
**A.** Its inhibition at 1500 µg/mL is ≤ 10%.

**Q.** What about the inhibition at 1500 µg/mL [9] of the same molecule?
**A.** The inhibition at 1500 µg/mL was ≤ 10%.

**Q.** What about the inhibition at 1500 µg/mL [10] of the same molecule?
**A.** The inhibition at 1500 µg/mL was ≤ 10%.

**Q.** And the “fold less cytotoxic to macrophages than pentamidine” value [11]?
**A.** Its value is “approximately 2.5 fold”.

**Q.** What about the “activity against Trypanosoma evansi” value [12] of the same molecule?
**A.** Its value is “shows activity”.

**Q.** With `CC1=CCC2CC1C2(C)C` (stereo not drawn) [α-pinene] as the molecule, how does the “LC50 (adulticidal activity of minor constituents)” value [2] read?
**A.** The value was 17.3–56.5 ppm.

**Q.** With `O=[N+]([O-])C=Cc1ccccc1` [NFTENE, 1-Nitro-2-phenylethene] as the molecule, how does the adult mortality ([6]; 100 ppm) read?
**A.** The adult mortality was “no adult mortality”.

**Q.** What about the “LC50 ± SEM (LCL-UCL)” value ([1]; 24 h exposure) of the same molecule?
**A.** Its value is 10.9 ppm.

**Q.** What about the “LC50 ± SEM (LCL-UCL)” value ([1]; 48 h exposure) of the same molecule?
**A.** The value was 7.7 ppm.

**Q.** And the “LC50 ± SEM (CI)” value [13]?
**A.** Its value is 1.9 ppm.

**Q.** And the “Slope ± SEM” value [7]?
**A.** Its value is 1.283 ± 0.094.

**Q.** What about the IC50 [7] of the same molecule?
**A.** The IC50 was 0.998 mM.

**Q.** And the IC50 [8]?
**A.** Its IC50 is 21 mM.

**Q.** What about the “Slope ± SEM” value [8] of the same molecule?
**A.** Its value is 2.02 ± 0.20.

**Q.** And the inhibition at 500 µg/mL ([8]; 500 μg.mL^−1)?
**A.** The inhibition at 500 µg/mL was 2.4%.

**Q.** And the inhibition at 1000 µg/mL ([8]; 1000 μg.mL^−1)?
**A.** Its inhibition at 1000 µg/mL is 9.1%.

**Q.** And the inhibition at 1500 µg/mL [8]?
**A.** The inhibition at 1500 µg/mL was 18.4 ± 2.11%.

**Q.** What about the “Slope ± SEM” value [9] of the same molecule?
**A.** The value was 0.72 ± 0.06.

**Q.** And the inhibition at 25 µg/mL ([9]; 25 μg.mL^−1)?
**A.** Its inhibition at 25 µg/mL is 15.5%.

**Q.** And the inhibition at 50 µg/mL ([9]; 50 μg.mL^−1)?
**A.** The inhibition at 50 µg/mL was 14.9%.

**Q.** What about the inhibition at 100 µg/mL ([9]; 100 μg.mL^−1) of the same molecule?
**A.** The inhibition at 100 µg/mL was 23.1%.

**Q.** What about the inhibition at 250 µg/mL ([9]; 250 μg.mL^−1) of the same molecule?
**A.** The inhibition at 250 µg/mL was 26.8%.

**Q.** What about the inhibition at 500 µg/mL ([9]; 500 μg.mL^−1) of the same molecule?
**A.** Its inhibition at 500 µg/mL is 38%.

**Q.** And the inhibition at 1000 µg/mL ([9]; 1000 μg.mL^−1)?
**A.** The inhibition at 1000 µg/mL was 57.1%.

**Q.** What about the inhibition at 1500 µg/mL [9] of the same molecule?
**A.** Its inhibition at 1500 µg/mL is 71.8 ± 2.21%.

**Q.** What about the “Slope ± SEM” value [10] of the same molecule?
**A.** Its value is 0.86 ± 0.07.

**Q.** And the inhibition at 100 µg/mL ([10]; 100 μg.mL^−1)?
**A.** The inhibition at 100 µg/mL was 4.5%.

**Q.** What about the inhibition at 250 µg/mL ([10]; 250 μg.mL^−1) of the same molecule?
**A.** Its inhibition at 250 µg/mL is 11.2%.

**Q.** What about the inhibition at 500 µg/mL ([10]; 500 μg.mL^−1) of the same molecule?
**A.** Its inhibition at 500 µg/mL is 15.1%.

**Q.** What about the inhibition at 1000 µg/mL ([10]; 1000 μg.mL^−1) of the same molecule?
**A.** The inhibition at 1000 µg/mL was 26.6%.

**Q.** What about the inhibition at 1500 µg/mL [10] of the same molecule?
**A.** Its inhibition at 1500 µg/mL is 34 ± 2.18%.

**Q.** With `CCCSP(=O)(OCC)Oc1ccc(Br)cc1Cl` (centres unmarked) [profenofos] as the molecule, how does the LC50 [4] read?
**A.** Its LC50 is 7.71 ppm.
